Assay results reported in patent publication US20170281602A1, “SOLID FORMS OF (S)-2-METHOXY-3--PROPIONIC ACID AND OF SALTS THEREOF” (Hoffmann-La Roche Inc., priority 2012, published 2017).

Columns and labels:
Format in all cases: physicochemical
[1] = Decomposition temperature of the solid form (thermal analysis)
Protocol: TGA analysis was performed on a Mettler-Toledo™ thermogravimetric analyzer (TGA850 or TGA851). System suitability tests were performed with Hydranal as reference substance and calibrations using aluminum and indium as reference substances.
For the thermogravimetric analyses, approx. 5 to 10 mg of sample were placed in aluminum pans, accurately weighed and hermetically closed with perforation lids. Prior to measurement, the lids were automatically pierced resulting in approx. 1.5 mm pin holes. The samples were then heated under a flow of nitrogen of about 50 mL/min using a heating rate of 5 K/min.

[2] = Hygroscopicity of the solid forms (DVS sorption/desorption isotherms); conditions: in words
Protocol: (§1) DVS isotherms were collected on a DVS-1, DVS-HT and DVS Intrinsic (SMS Surface Measurements Systems) moisture balance system. The sorption/desorption isotherms were measured stepwise in a range of 0% RH to 90% RH at 25° C. A weight change of <0.002 mg/min was chosen as criterion to switch to the next level of relative humidity (with a maximum equilibration time of 24 hours, if the weight criterion was not met). The data were corrected for the initial moisture content of the samples; that is, the weight after drying the sample at 0% RH was taken as the reference point.

[3] = Thermal solid-form transformation (DSC, temperature controlled XRPD); conditions: for temperature of thermal transformation into Sodium salt Form A: incubation at high temperature; for glass transition temperature, above which recrystallization is likely to occur: midpoint
Protocol: DSC curves were recorded using a Mettler-Toledo™ differential scanning calorimeter DSC820, DSC821 or DSC1 with a FRS05 sensor. System suitability tests were performed with indium as reference substance and calibrations were carried out using indium, benzoic acid, biphenyl and zinc as reference substances.
For the measurements, approximately 2-6 mg of sample were placed in aluminum pans, accurately weighed and hermetically closed with perforation lids. Prior to measurement, the lids were automatically pierced resulting in approx. 1.5 mm pin holes. The samples were then heated under a flow of nitrogen of about 100 mL/min using heating rates of usually 10 K/min.
(§2) X-ray powder diffraction patterns were recorded at ambient conditions in transmission geometry with a STOE STADI P diffractometer (Cu K ? ? radiation, primary monochromator, position sensitive detector, angular range 3° to 42° 2Theta, approximately 60 minutes total measurement time). Approximately 25 mg of sample were prepared and analyzed without further processing (e.g. grinding or sieving) of the substance.

[4] = Relative stability of the solid forms (statements in words); conditions: for solid form stability: in words
[5] = Humidity-induced solid-form transformation (humidity controlled XRPD, DVS); conditions: at 25° C.
Protocol: as §1, §2

[6] = Competing slurry experiment between Free acid Forms A, B and C; conditions: isopropyl acetate, 20 and 60° C., seeded with Free acid Form B and Form C, 14 days, wet stage XRPD
Protocol: Description of a typical competing slurry experiment:
200 and 300 mg of form A of (S)-2-methoxy-3-{4-[2-(5-methyl-2-phenyl-oxazol-4-yl)-ethoxy]-benzo[b]thiophen-7-yl}-propionic acid were each suspended in ca. 1 mL of isopropyl acetate at 20 and 60° C., respectively. After 24 h the two suspensions were seeded with approximately 10 mg of Free acid Form B and Free acid Form C. After 14 days the crystals were harvested by filtration and analyzed in wet stage by XRPD.

For “diisopropylammonium (S)-2-methoxy-3-{4-[2-(5-methyl-2-phenyl-oxazol-4-yl)-ethoxy]-benzo[b]thiophen-7-yl}-propanoate [Diisopropylammonium salt Form A]”, the decomposition temperature [1] was “approx. 100 °C” and the hygroscopicity [2] was “slightly hygroscopic”.
For CO[C@@H](Cc1ccc(OCCc2nc(-c3ccccc3)oc2C)c2ccsc12)C(=O)O [Free acid Form C, (S)-2-methoxy-3-{4-[2-(5-methyl-2-phenyl-oxazol-4-yl)-ethoxy]-benzo[b]thiophen-7-yl}-propionic acid], the “temperature of transformation into Free acid Form B” value ([3]; extrapolated peak DSC) was “ca. 150 °C” and the “thermodynamic stability among polymorphs” value ([4]; at ambient temperature) was “thermodynamically less stable than Free acid Form A and Free acid Form B”.
In the case of CO[C@@H](Cc1ccc(OCCc2nc(-c3ccccc3)oc2C)c2ccsc12)C(=O)O [Free acid Form D, (S)-2-methoxy-3-{4-[2-(5-methyl-2-phenyl-oxazol-4-yl)-ethoxy]-benzo[b]thiophen-7-yl}-propionic acid], the solid form stability [4] was “transforms into Free acid Form B upon storage at ambient conditions over time”.
For CO[C@@H](Cc1ccc(OCCc2nc(-c3ccccc3)oc2C)c2ccsc12)C(=O)O [Free acid Form B, (S)-2-methoxy-3-{4-[2-(5-methyl-2-phenyl-oxazol-4-yl)-ethoxy]-benzo[b]thiophen-7-y1}-propionic acid], the “temperature below which spontaneous transformation into Free acid Form A occurs” value ([3]; extrapolated peak DSC) was under −5 °C and the “temperature of spontaneous solid-solid retransformation into Free acid Form A” value ([3]; observed at this temperature or below) was at most 45 °C.
In the case of CO[C@@H](Cc1ccc(OCCc2nc(-c3ccccc3)oc2C)c2ccsc12)C(=O)O [Free acid Form E, (S)-2-methoxy-3-{4-[2-(5-methyl-2-phenyl-oxazol-4-yl)-ethoxy]-benzo[b]thiophen-7-yl}-propionic acid], the solid form stability [4] was “transforms into Free acid Form B upon mild heating”.
For CO[C@@H](Cc1ccc(OCCc2nc(-c3ccccc3)oc2C)c2ccsc12)C(=O)[O-].[Na+] [Sodium salt amorphous form, sodium (S)-2-methoxy-3-{4-[2-(5-methyl-2-phenyl-oxazol-4-yl)-ethoxy]-benzo[b]thiophen-7-yl}-propanoate], the “temperature of thermal transformation into Sodium salt Form A” value [3] was over 115 °C, the “glass transition temperature, above which recrystallization is likely to occur” value [3] was “approx. 65.5 °C” and the hygroscopicity [2] was “hygroscopic”. For the same compound, the “relative humidity above which transformation into hydrated form occurs” value [5] was “Above 50 % RH”.
In the case of CO[C@@H](Cc1ccc(OCCc2nc(-c3ccccc3)oc2C)c2ccsc12)C(=O)[O-].[Na+] [Sodium salt Form C, sodium (S)-2-methoxy-3-{4-[2-(5-methyl-2-phenyl-oxazol-4-yl)-ethoxy]-benzo[b]thiophen-7-yl}-propanoate], the “relative humidity below which reversible transformation into a dehydrated solid form occurs” value ([5]; humidity controlled XRPD) was under 15 %-RH.
For CO[C@@H](Cc1ccc(OCCc2nc(-c3ccccc3)oc2C)c2ccsc12)C(=O)[O-].[Na+] [Sodium salt Form B, sodium (S)-2-methoxy-3-{4-[2-(5-methyl-2-phenyl-oxazol-4-yl)-ethoxy]-benzo[b]thiophen-7-yl}-propanoate], the “temperature of thermal transformation into Sodium salt Form A” value [3] was over 120 °C and the solid form stability [4] was “metastable”.
In the case of CO[C@@H](Cc1ccc(OCCc2nc(-c3ccccc3)oc2C)c2ccsc12)C(=O)O [amorphous form of the Free acid, (S)-2-methoxy-3-{4-[2-(5-methyl-2-phenyl-oxazol-4-yl)-ethoxy]-benzo[b]thiophen-7-yl}-propionic acid], the “glass transition temperature, above which recrystallization is likely to occur” value [3] was “approx. 44 °C” and the hygroscopicity ([2]; listed as amorphous form of (S)-2-methoxy-3-{4-[2-(5-methyl-2-phenyl-oxazol-4-yl)-ethoxy]-) was “hygroscopic”.
In the case of CO[C@@H](Cc1ccc(OCCc2nc(-c3ccccc3)oc2C)c2ccsc12)C(=O)O [Free acid Form A, (S)-2-methoxy-3-{4-[2-(5-methyl-2-phenyl-oxazol-4-yl)-ethoxy]-benzo[b]thiophen-7-y1}-propionic acid], the “temperature of transformation into Free acid Form B” value ([3]; temperature controlled XRPD) was over 85 °C, the hygroscopicity [2] was “non-hygroscopic” and the “thermodynamic stability among polymorphs” value ([4]; below ca. 60° C.) was “thermodynamically most stable polymorph”. The “solid form obtained in competing slurry” value [6] was “pure Free acid Form A is obtained”.
With CO[C@@H](Cc1ccc(OCCc2nc(-c3ccccc3)oc2C)c2ccsc12)C(=O)[O-].[Na+] [Sodium salt Form A, sodium (S)-2-methoxy-3-{4-[2-(5-methyl-2-phenyl-oxazol-4-yl)-ethoxy]-benzo[b]thiophen-7-yl}-propanoate] the “temperature of transformation into Sodium salt Form B” value [3] was over 208 °C and the “relative humidity above which transformation into hydrated form occurs” value [5] was over 80 % RH.
